Test results taken from PMC12737022, “Evaluations of Sex Differences in Dosimetry in Rats Following Perfluorohexanesulfonamide (PFHxSA) Oral Exposure” (Toxics, 2025).
Where “and” joins values, the source holds several entries; their conditions need not be identical. Equal entries are not always repeated. Where two headings read alike, the source gives them in different places.

Columns and labels:
[1] = In vitro-in vivo extrapolation (IVIVE) to estimate Css, human
Experimental: Intrinsic hepatic clearance (Clint) and fraction unbound in plasma (fup) were calculated from the experimental point estimate data as described in Dobreniecki et al.. Steady-state concentrations (Css) were derived based on zero-order uptake of an assumed daily dose from the gut (assuming 100% intestinal bioavailability) but considering hepatic clearance and non-metabolic renal clearance. Renal clearance was calculated using the glomerular filtration rate (a species-dependent constant) and the fraction unbound in blood (fub), estimated by adjusting the experimental fup for blood/plasma partitioning. The Css calculations, along with underlying species-specific physiologic scalars, are detailed in SI Texts S6 and S7. […]
hepatocytes). In equation (C), the scalar 2000 is used to adjust the assay cell number to be consistent with units of 1 million cells in the Clint equation.
Text S7 In Vitro-In Vivo Extrapolation (IVIVE) Calculations
The pharmacokinetic equation used to estimate expected steady-state concentrations (Css) is based on zero-order uptake of a daily dose from the gut (assuming 100% bioavailability) with both nonmetabolic renal clearance (Clrenal) and hepatic clearance (Clhepatic) (Equation D). The chemical input rate (ko) is the product of the intake dosage and the model body weight; this represents the numerator of Equation D. The Clrenal calculation is shown in the first part of the denominator of Equation D; it is the product of the species-dependent glomerular filtration rate (GFR) and the unbound fraction in blood (fub) of the parent compound. The Clhepatic calculation is shown in the second part of the denominator of Equation D; it is the product of the species-dependent liver blood flow constant, the fub of the parent compound, and the experimentally derived intrinsic clearance (shown in Equation C) divided by the sum of these three values. All values used in Equation D are for first-order conditions of metabolism in the […]

[2] = Liver dosimetry of PFHxSA and PFHxS by targeted LC/MS/MS; format: in vivo, rat; conditions: for concentration at 24 h: Sprague Dawley (Crl:CD(SD)), rat, liver, oral
Source text: The plasma and liver samples for this investigation were provided by Mutlu et al.. The study design, including detailed descriptions of animal handling, procedures for dosing, clinical observations, termination, and collection of tissues, is reported elsewhere and is consistent with the ARRIVE guidelines. Briefly, male and female Sprague Dawley (SD) rats (Crl:CD(SD)) (n = 48/sex, 96 total) were purchased from Charles River Laboratory (Raleigh, NC, USA) and allowed to acclimate for ≥5 days before initial dosing. Rats were 8–10 weeks old at the time of exposure. PFHxSA dosing solutions in corn oil were prepared on Day 0 and used over the course of the study. Rats of both sexes (n = 5/sex, dose, and time point, plus eight vehicle controls per sex) were dosed by oral gavage (5 mL/kg body weight) once daily for five days. […] The formulation concentrations decreased from 100 mg/kg/day at half-log10 intervals until the lowest dose level, which was a full log10 interval below the next higher dose, giving eight dose levels (0.01 to 100 mg/kg/day or 0.025 µmol/kg/day to 250 µmol/kg/day) in addition to vehicle controls. Doses were administered in randomized order within ± 1 h on each day of dosing. […] Rats were euthanized 24 h after the last dose. Blood was collected via cardiac puncture with tripotassium ethylene diamine tetraacetic acid (K3EDTA) as an anti-coagulant and centrifuged to collect cell-free plasma. Liver was collected and flash-frozen in liquid nitrogen. Liver, plasma, and dosing formulation samples were frozen at the USEPA Center for Computational Toxicology and Exposure (CCTE), Durham, NC, USA. Tissue samples (plasma and liver, n = 96 each) were stored at ≤−70 °C prior to extraction; dosing formulation samples (n = 9) were stored at −20 °C.
Detailed information on solvents and standards used for targeted LC/MS/MS of PFHxSA and PFHxS can be found in SI Text S1 and SI Table S1. Plasma and liver preparations were modified from Conley et al.. Briefly, aliquots of plasma (25 µL) and liver (~10 mg) were spiked with PFOSA as an internal standard, as no isotope-labeled PFHxSA was available. Sample batches included up to 96 samples along with an MB, CCV, and LCS for QC. Commercial plasma (mixed-sex SD rat plasma) and liver (mixed-sex SD rat) were obtained from BioIVT (Westbury, NY, USA). Cold acetonitrile (ACN) with 0.1 M formic acid was used to precipitate proteins. Liver and plasma samples were prepared similarly, except that the livers were homogenized after solvent addition. Plasma samples were vortexed to mix before being chilled at −20 °C, after which samples were centrifuged at 5 °C and 10,000× g. Liver samples were chilled at −80 °C, then homogenized using an Omni International (Kennesaw, GA, USA) Bead Ruptor 24. Liver homogenates were centrifuged at 26,000× g and 5 °C. Supernatants from the extraction of both matrices were removed and stored at −20 °C until analysis. Refer to SI Text S4 for additional experimental details and information on calibration and QC parameters for quantitation of PFHxSA.
Targeted LC/MS/MS of PFHxSA was performed on a Sciex 4000 QTRAP LC/MS/MS system operated in negative ESI mode with MRM scanning. A Restek (Bellefonte, PA, USA) Raptor Polar X (100 mm × 2 mm, 2.7 µm) column was used for liquid chromatography. Isocratic elution occurred over 10 min with a 30:70 ratio of mobile phase A (10 mM ammonium formate): mobile phase B (60:40 ACN: methanol). Both mobile phases included 0.05% formic acid. The LOQs for PFHxSA were 0.100 µM in plasma and 0.351 µM in liver. Additional details of the instrument method parameters for targeted analysis of PFHxSA are provided in SI Table S5. The MRM transitions for the PFHxSA method are provided in SI Table S6. […]

NS(=O)(=O)C(F)(F)C(F)(F)C(F)(F)C(F)(F)C(F)(F)C(F)(F)F [PFHxSA, Perfluorohexanesulfonamide]
Css (steady-state concentration) ([1]; Human, IVIVE-derived, assumes 1 mg/kg/day exposure): 1510 µM
CL renal ([1]; Human, non-metabolic, GFR x fub, read-out: Clrenal (renal clearance) (converted)): 0.0817 mL/min
Predicted Css in humans higher than rats ([1]; cross-species IVIVE comparison): 3- to 10 fold
PFHxSA Female Liver Conc. (wet weight) ([2]; PFHxSA 0.1 mg/kg/day oral 5 days, female, individual rats): 0.491 µM and 0.599 µM and 0.338 µM and 0.434 µM
PFHxSA Male Liver Conc. (wet weight) ([2]; PFHxSA 0.1 mg/kg/day oral 5 days, male, individual rats): 0.191 ng/mg and 0.0842 ng/mg and 0.479 µM and 0.211 µM and 0.156 ng/mg and 0.391 µM and 0.746 µM and 0.503 µM and 0.298 ng/mg and 0.201 ng/mg
PFHxSA Female Liver Conc. (wet weight) ([2]; PFHxSA 0.3 mg/kg/day oral 5 days, female, individual rats): 1.47 µM and 1.96 µM and 1.26 µM and 1.74 µM
PFHxSA Male Liver Conc. (wet weight) ([2]; PFHxSA 0.3 mg/kg/day oral 5 days, male, individual rats): 0.462 ng/mg and 0.399 ng/mg and 1.26 µM and 0.604 µM and 1.30 µM and 1.16 µM and 1.00 µM and 0.503 ng/mg
PFHxSA Female Liver Conc. (wet weight) ([2]; PFHxSA 1 mg/kg/day oral 5 days, female, individual rats): 2.91 µM and 2.52 µM and 4.17 µM and 4.76 µM and 6.64 µM
PFHxSA Male Liver Conc. (wet weight) ([2]; PFHxSA 1 mg/kg/day oral 5 days, male, individual rats): 0.846 ng/mg and 1.00 ng/mg and 1.09 ng/mg and 1.18 ng/mg and 2.12 µM and 2.51 µM and 2.73 µM and 2.97 µM
PFHxSA Female Liver Conc. (wet weight) ([2]; PFHxSA 3 mg/kg/day oral 5 days, female, individual rats): 7.94 µM and 4.86 µM and 6.40 µM and 9.55 µM and 10.8 µM
PFHxSA Male Liver Conc. (wet weight) ([2]; PFHxSA 3 mg/kg/day oral 5 days, male, individual rats): 1.92 ng/mg and 1.86 ng/mg and 1.63 ng/mg and 2.14 ng/mg and 4.81 µM and 4.67 µM and 4.08 µM and 5.36 µM
PFHxSA Female Liver Conc. (wet weight) ([2]; PFHxSA 10 mg/kg/day oral 5 days, female, individual rats): 6.97 µM and 8.65 µM and 7.58 µM and 9.86 µM
PFHxSA Male Liver Conc. (wet weight) ([2]; PFHxSA 10 mg/kg/day oral 5 days, male, individual rats): 5.65 ng/mg and 3.24 ng/mg and 4.53 ng/mg and 4.26 ng/mg and 14.2 µM and 8.13 µM and 11.4 µM and 10.7 µM
PFHxSA Female Liver Conc. (wet weight) ([2]; PFHxSA 30 mg/kg/day oral 5 days, female, individual rats): 15.8 ng/mg and 7.72 ng/mg and 10.1 ng/mg and 8.88 ng/mg and 23.9 µM and 39.6 µM and 19.4 µM and 25.2 µM and 22.3 µM
PFHxSA Male Liver Conc. (wet weight) ([2]; PFHxSA 30 mg/kg/day oral 5 days, male, individual rats): 4.86 ng/mg and 3.36 ng/mg and 4.47 ng/mg and 6.25 ng/mg and 12.2 µM and 8.43 µM and 11.2 µM and 15.7 µM
PFHxSA Female Liver Conc. (wet weight) ([2]; PFHxSA 100 mg/kg/day oral 5 days, female, individual rats): 20.7 ng/mg and 12.3 ng/mg and 37.7 ng/mg and 20.9 ng/mg and 16.1 ng/mg and 52.0 µM and 30.8 µM and 94.6 µM and 52.3 µM and 40.3 µM
PFHxSA Male Liver Conc. (wet weight) ([2]; PFHxSA 100 mg/kg/day oral 5 days, male, individual rats): 14.9 ng/mg and 19.0 ng/mg and 6.87 ng/mg and 4.89 ng/mg and 5.61 ng/mg and 37.4 µM and 47.6 µM and 17.2 µM and 12.3 µM
concentration at 24 h ([2]; female, 0.1 mg/kg/day, PFHxSA 0.1 mg/kg/day oral 5 days, female, individual rats, read-out: PFHxSA Female Liver Conc. (wet weight)): 436 nM and 174 ng/g
concentration at 24 h ([2]; female, 0.3 mg/kg/day, PFHxSA 0.3 mg/kg/day oral 5 days, female rats, mean ± SD, read-out: PFHxSA Female Liver Conc.): 1.69 ± 0.32 µM
concentration at 24 h ([2]; female, 0.3 mg/kg/day, PFHxSA 0.3 mg/kg/day oral 5 days, female, individual rats, read-out: PFHxSA Female Liver Conc. (wet weight)): 2.03 µM and 811 ng/g
concentration at 24 h ([2]; female, 1 mg/kg/day, PFHxSA 1 mg/kg/day oral 5 days, female rats, mean ± SD, read-out: PFHxSA Female Liver Conc.): 4.2 ± 1.6 µM
concentration at 24 h ([2]; female, 3 mg/kg/day, PFHxSA 3 mg/kg/day oral 5 days, female rats, mean ± SD, read-out: PFHxSA Female Liver Conc.): 7.91 ± 2.4 µM
concentration at 24 h ([2]; female, 10 mg/kg/day, PFHxSA 10 mg/kg/day oral 5 days, female rats, mean ± SD, read-out: PFHxSA Female Liver Conc.): 8.41 ± 1.1 µM
concentration at 24 h ([2]; female, 10 mg/kg/day, PFHxSA 10 mg/kg/day oral 5 days, female, individual rats, read-out: PFHxSA Female Liver Conc. (wet weight)): 8.98 µM and 3580 ng/g
concentration at 24 h ([2]; female, 30 mg/kg/day, PFHxSA 30 mg/kg/day oral 5 days, female rats, mean ± SD, read-out: PFHxSA Female Liver Conc.): 26.1 ± 7.9 µM
concentration at 24 h ([2]; male, 0.3 mg/kg/day, PFHxSA 0.3 mg/kg/day oral 5 days, male rats, mean ± SD, read-out: PFHxSA Male Liver Conc.): 1.06 ± 0.28 µM
concentration at 24 h ([2]; male, 1 mg/kg/day, PFHxSA 1 mg/kg/day oral 5 days, male rats, mean ± SD, read-out: PFHxSA Male Liver Conc.): 2.48 ± 0.39 µM
concentration at 24 h ([2]; male, 1 mg/kg/day, PFHxSA 1 mg/kg/day oral 5 days, male, individual rats, read-out: PFHxSA Male Liver Conc. (wet weight)): 821 ng/g and 2.06 µM
concentration at 24 h ([2]; male, 3 mg/kg/day, PFHxSA 3 mg/kg/day oral 5 days, male rats, mean ± SD, read-out: PFHxSA Male Liver Conc.): 4.67 ± 0.47 µM
concentration at 24 h ([2]; male, 3 mg/kg/day, PFHxSA 3 mg/kg/day oral 5 days, male, individual rats, read-out: PFHxSA Male Liver Conc. (wet weight)): 1780 ng/g and 4.45 µM
